In ChEMBL document CHEMBL1201862, “PubChem BioAssay data set” (2004):
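Interpolation was linear, between the two tested concentrations surrounding the appropriate level; five concentrations were tested over 48 hours in 96-well plates. GI50 is the concentration that inhibits growth by half.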 The source made the active and inactive calls. Cut-off read from the data, not from the text of the source: active = GI50 up to about 1.1 µM and inactive = higher.

Columns and labels:
Assay in all cases: growth of human tumour cells (NCI), 48 h
786-0 = system: 786-0
A498 = system: A498
A549 = system: A549
ACHN = system: ACHN
BT-549 = system: BT-549
CAKI-1 = system: CAKI-1
CCRF-CEM = system: CCRF-CEM
COLO 205 = system: COLO 205
DU-145 = system: DU-145
EKVX = system: EKVX
HCC 2998 = system: HCC 2998
HCT-116 = system: HCT-116
HCT-15 = system: HCT-15
HL-60 = system: HL-60
HOP-62 = system: HOP-62
HOP-92 = system: HOP-92
HT-29 = system: HT-29
Hs-578T = system: Hs-578T
IGROV-1 = system: IGROV-1
K562 = system: K562
KM12 = system: KM12
LOX IMVI = system: LOX IMVI
M14 = system: M14
MCF7 = system: MCF7
MDA-MB-231 = system: MDA-MB-231
MDA-MB-435 = system: MDA-MB-435
MDA-N = system: MDA-N
MOLT-4 = system: MOLT-4
Malme-3M = system: Malme-3M
NCI-H226 = system: NCI-H226
NCI-H23 = system: NCI-H23
NCI-H460 = system: NCI-H460
NCI-H522 = system: NCI-H522
NCI/ADR-RES = system: NCI/ADR-RES
OVCAR-3 = system: OVCAR-3
OVCAR-4 = system: OVCAR-4
OVCAR-5 = system: OVCAR-5
OVCAR-8 = system: OVCAR-8
PC-3 = system: PC-3
RPMI-8226 = system: RPMI-8226
SF-268 = system: SF-268
SF-295 = system: SF-295
SF-539 = system: SF-539
SK-MEL-28 = system: SK-MEL-28
SK-MEL-2 = system: SK-MEL-2
SK-MEL-5 = system: SK-MEL-5
SK-OV-3 = system: SK-OV-3
SN12C = system: SN12C
SNB-19 = system: SNB-19
SNB-75 = system: SNB-75
SR = system: SR
SW-620 = system: SW-620
T47D = system: T47D
TK-10 = system: TK-10
U-251 = system: U-251
UACC-257 = system: UACC-257
UACC-62 = system: UACC-62
UO-31 = system: UO-31

Measured: GI50

N#CN1C2CCC1CC(=O)C2
> 100 µM: HCT-15
inactive: 786-0 > 100 µM | A498 > 100 µM | A549 > 100 µM | ACHN > 100 µM | BT-549 > 100 µM | CAKI-1 > 100 µM | CCRF-CEM > 100 µM | COLO 205 > 100 µM | DU-145 > 100 µM | EKVX > 100 µM | HCC 2998 > 100 µM | HCT-116 > 100 µM | HL-60 > 100 µM | HOP-62 > 100 µM | HOP-92 > 100 µM | HT-29 > 100 µM | Hs-578T > 100 µM | IGROV-1 > 100 µM | K562 > 100 µM | KM12 > 100 µM | LOX IMVI > 100 µM | M14 > 100 µM | MCF7 > 100 µM | MDA-MB-231 > 100 µM | MDA-MB-435 > 100 µM | MDA-N > 100 µM | MOLT-4 > 100 µM | Malme-3M > 100 µM | NCI-H226 > 10 µM | NCI-H23 > 100 µM | NCI-H460 > 100 µM | NCI-H522 > 100 µM | NCI/ADR-RES > 100 µM | OVCAR-3 > 100 µM | OVCAR-4 > 100 µM | OVCAR-5 > 100 µM | OVCAR-8 > 100 µM | PC-3 > 100 µM | RPMI-8226 > 100 µM | SF-268 > 100 µM | SF-295 > 100 µM | SF-539 > 100 µM | SK-MEL-28 > 100 µM | SK-MEL-2 > 100 µM | SK-MEL-5 > 100 µM | SK-OV-3 > 100 µM | SN12C > 100 µM | SNB-19 > 100 µM | SNB-75 > 100 µM | SR > 100 µM | SW-620 > 100 µM | T47D > 100 µM | TK-10 > 100 µM | U-251 > 100 µM | UACC-257 > 100 µM | UACC-62 > 100 µM | UO-31 > 100 µM

O=[N+]([O-])c1ccc2c3ccccc3[s+]([O-])c2c1 (centres undefined)
> 100 µM: HCT-15
inactive: 786-0 > 100 µM | A498 > 100 µM | A549 > 100 µM | ACHN > 100 µM | BT-549 > 100 µM | CAKI-1 > 100 µM | CCRF-CEM > 100 µM | COLO 205 63.7 µM | DU-145 > 100 µM | EKVX 35.2 µM | HCT-116 > 100 µM | HL-60 88.5 µM | HOP-62 > 100 µM | HOP-92 > 100 µM | HT-29 > 100 µM | Hs-578T > 100 µM | IGROV-1 > 100 µM | K562 > 100 µM | KM12 > 100 µM | LOX IMVI > 100 µM | M14 > 100 µM | MCF7 74 µM | MDA-MB-231 > 100 µM | MDA-MB-435 > 100 µM | MDA-N > 100 µM | MOLT-4 > 100 µM | Malme-3M 30.5 µM | NCI-H226 > 100 µM | NCI-H23 > 100 µM | NCI-H460 > 100 µM | NCI-H522 > 100 µM | NCI/ADR-RES > 100 µM | OVCAR-3 33 µM | OVCAR-4 > 100 µM | OVCAR-5 > 100 µM | OVCAR-8 > 100 µM | PC-3 > 100 µM | RPMI-8226 > 100 µM | SF-268 > 100 µM | SF-295 > 100 µM | SF-539 > 100 µM | SK-MEL-28 > 100 µM | SK-MEL-2 > 100 µM | SK-MEL-5 > 100 µM | SK-OV-3 > 100 µM | SN12C > 100 µM | SNB-19 > 100 µM | SNB-75 > 100 µM | SR > 100 µM | SW-620 72.4 µM | T47D > 100 µM | TK-10 > 100 µM | U-251 > 100 µM | UACC-257 > 100 µM | UACC-62 > 100 µM
